Source: patent US11479802B2, “Assays for screening activity of modulators of members of the hydroxy steroid (17-beta) dehydrogenase (HSD17B) family” (Regeneron Pharmaceuticals, Inc., priority 2017, dated 2022)

Legend:
Type in all cases: biochemical
HSD17B4 = biological target: T1, HSD17B4 (Homo sapiens, UniProt P51659); assay: Steroid substrate panel against HSD17B family member B4; details: substrate at 50 μM; estradiol set as 100%
T1 construct: made in house
T1 sequence (P51659 1-736): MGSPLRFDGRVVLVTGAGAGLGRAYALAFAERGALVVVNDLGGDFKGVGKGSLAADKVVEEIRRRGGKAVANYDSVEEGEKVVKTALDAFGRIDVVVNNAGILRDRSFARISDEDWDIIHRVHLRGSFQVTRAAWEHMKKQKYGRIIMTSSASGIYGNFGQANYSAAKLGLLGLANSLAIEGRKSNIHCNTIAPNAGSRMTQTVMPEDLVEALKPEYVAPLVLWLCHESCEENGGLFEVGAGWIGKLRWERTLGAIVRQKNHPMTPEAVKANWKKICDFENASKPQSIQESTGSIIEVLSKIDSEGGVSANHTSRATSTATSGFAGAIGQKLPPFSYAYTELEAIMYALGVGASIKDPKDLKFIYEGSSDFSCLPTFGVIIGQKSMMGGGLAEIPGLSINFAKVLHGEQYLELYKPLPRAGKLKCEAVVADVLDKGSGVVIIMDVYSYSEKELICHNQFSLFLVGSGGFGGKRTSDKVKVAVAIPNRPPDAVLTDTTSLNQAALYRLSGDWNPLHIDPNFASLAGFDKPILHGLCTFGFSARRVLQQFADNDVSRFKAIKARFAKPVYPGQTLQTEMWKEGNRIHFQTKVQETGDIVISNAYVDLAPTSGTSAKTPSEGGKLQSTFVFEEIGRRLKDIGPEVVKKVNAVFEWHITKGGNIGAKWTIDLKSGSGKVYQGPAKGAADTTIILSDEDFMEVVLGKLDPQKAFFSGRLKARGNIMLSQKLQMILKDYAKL
Description: (§1) To understand the functional consequences of premature truncation of the HSD17B13 protein due to rs72613567:TA (the associated variant, rs72613567, is an insertion of an adenine adjacent to the donor splice site of exon six (TA allele)), the enzymatic activity of isoforms A and D was evaluated in vitro using recombinant protein and nicotinamide […] dinucleotide as cofactor. Reactions were performed in a final volume of 40 μl of assay buffer (0.2 M Tris-HCl, pH 7.5) which contained 500 μM NAD^+, 5 μM bioactive lipid or 50 μM steroid (all in a final concentration of 5% DMSO), and 100 ng of recombinant human HSD17B13. Reactions were incubated for 3 hours, at 23° C., after which an equal volume detection reagent was added. Following a 1 hour incubation at 23° C., the relative light units (RLUs) were measured on an Envision Plate Reader (Perkin Elmer). Raw RLU values were normalized as percent of control (50 μM estradiol) following subtraction of negative control (5% DMSO) using the following formula: Percent of control (POC)=100×(Sample (RLU)−Negative CTRLaverage)/(Positive CTRLaverage−Negative CTRLaverage).
(§2) In order to determine specificity of compounds with inhibitory activity against HSD17B13, assays for selected members of the HSD17B family which includes HSD17B1-HSD17B14 were established. As a first step, selected family members were expressed, purified and tested for activity a using a steroid substrate panel. Substrates from the steroid panel were tested at 50 μM, using the standard assay protocol. Activity against the substrates for each HSD17B family member were normalized to Percent of Control (POC). The control, estradiol, was set as 100%.

HSD17B5 = biological target: T2, HSD17B5 (Homo sapiens, UniProt P42330); assay: Steroid substrate panel against HSD17B family member B5; details: substrate at 50 μM; estradiol set as 100%
T2 construct: made in house
T2 sequence (P42330 1-323): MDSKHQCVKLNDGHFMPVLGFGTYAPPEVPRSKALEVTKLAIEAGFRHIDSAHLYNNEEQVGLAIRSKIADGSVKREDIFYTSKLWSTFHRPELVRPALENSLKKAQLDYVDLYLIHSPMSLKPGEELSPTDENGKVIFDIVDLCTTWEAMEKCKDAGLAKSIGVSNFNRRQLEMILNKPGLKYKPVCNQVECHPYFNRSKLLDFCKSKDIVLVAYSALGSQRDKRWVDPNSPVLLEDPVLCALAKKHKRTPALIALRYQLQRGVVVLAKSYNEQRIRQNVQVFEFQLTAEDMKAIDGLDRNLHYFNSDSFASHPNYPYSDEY
Description: as §1, §2

HSD17B11 = biological target: T3, HSD17B11 (Homo sapiens, UniProt Q8NBQ5); assay: Steroid substrate panel against HSD17B family member B11; details: substrate at 50 μM; estradiol set as 100%
T3 construct: made in house
T3 sequence (Q8NBQ5 20-300): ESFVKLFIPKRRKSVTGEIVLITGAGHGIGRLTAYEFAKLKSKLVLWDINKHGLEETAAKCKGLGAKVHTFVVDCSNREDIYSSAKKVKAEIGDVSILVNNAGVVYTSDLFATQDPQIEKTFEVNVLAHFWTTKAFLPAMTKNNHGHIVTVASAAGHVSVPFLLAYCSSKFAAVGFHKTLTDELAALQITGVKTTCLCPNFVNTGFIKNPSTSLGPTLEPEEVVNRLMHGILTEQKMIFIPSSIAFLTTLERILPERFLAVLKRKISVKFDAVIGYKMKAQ
Description: as §1, §2

HSD17B10 = biological target: T4, HSD17B10 (Homo sapiens, UniProt Q99714); assay: Steroid substrate panel against HSD17B family member B10; details: substrate at 50 μM; estradiol set as 100%
T4 construct: made in house
T4 sequence (Q99714 1-261): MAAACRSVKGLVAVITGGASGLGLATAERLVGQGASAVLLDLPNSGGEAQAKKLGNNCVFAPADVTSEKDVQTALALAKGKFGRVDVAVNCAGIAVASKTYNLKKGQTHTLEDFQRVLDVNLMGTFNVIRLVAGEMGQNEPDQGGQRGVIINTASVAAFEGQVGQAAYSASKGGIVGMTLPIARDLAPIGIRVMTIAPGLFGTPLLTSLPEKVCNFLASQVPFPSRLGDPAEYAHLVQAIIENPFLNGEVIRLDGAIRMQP
Description: as §1, §2

human HSD17B13 = biological target: T5, human HSD17B13 (Homo sapiens, UniProt Q7Z5P4); assay: Substrate screening of steroid and bioactive lipid libraries against purified recombinant HSD17B13 (NADH-linked luciferase assay); details: Steroid Library, 50 μM steroid; for HSD17B13 Enzymatic Activity Relative Light Units: 500 μM NAD+, 100 ng enzyme, 3 hours at 23° C.; for HSD17B13 Enzymatic Activity Percent Estradiol Control: normalized to 50 μM estradiol after subtraction of 5% DMSO
T5 sequence (Q7Z5P4 20-300): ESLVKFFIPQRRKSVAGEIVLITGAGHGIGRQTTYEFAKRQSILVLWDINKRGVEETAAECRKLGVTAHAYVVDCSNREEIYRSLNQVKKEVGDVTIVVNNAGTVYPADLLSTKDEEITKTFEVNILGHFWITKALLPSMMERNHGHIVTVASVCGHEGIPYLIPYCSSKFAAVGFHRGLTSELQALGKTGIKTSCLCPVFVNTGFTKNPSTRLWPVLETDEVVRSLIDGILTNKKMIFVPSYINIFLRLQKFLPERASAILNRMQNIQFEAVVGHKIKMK
In short: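 Substrates (bioactive lipids 5 μM, steroids 50 μM; 5% DMSO) tested with 500 μM NAD+ and 100 ng recombinant human HSD17B13 in 0.2 M Tris-HCl pH 7.5, 3 h, 23° C. Luminescent NADH detection followed 1 h later; RLU normalized to estradiol (50 μM, 100%) and DMSO (0%) controls.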

HSD17B2 = biological target: T6, HSD17B2 (Homo sapiens, UniProt P37059); assay: Steroid substrate panel against HSD17B family member B2; details: substrate at 50 μM; estradiol set as 100%
T6 construct: made in house
T6 sequence (P37059 1-387): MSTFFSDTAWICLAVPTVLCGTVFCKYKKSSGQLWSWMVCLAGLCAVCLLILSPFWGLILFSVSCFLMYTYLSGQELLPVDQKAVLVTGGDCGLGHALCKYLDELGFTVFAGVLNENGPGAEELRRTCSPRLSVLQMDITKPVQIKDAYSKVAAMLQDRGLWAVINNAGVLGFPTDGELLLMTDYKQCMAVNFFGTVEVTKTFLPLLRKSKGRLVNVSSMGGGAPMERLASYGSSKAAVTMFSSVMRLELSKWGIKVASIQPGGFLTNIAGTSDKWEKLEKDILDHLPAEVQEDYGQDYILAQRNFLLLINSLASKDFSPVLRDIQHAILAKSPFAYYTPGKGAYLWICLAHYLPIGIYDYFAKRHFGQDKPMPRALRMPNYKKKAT
Description: as §1, §2

HSD17B1 = biological target: T7, HSD17B1 (Homo sapiens, UniProt P14061); assay: Steroid substrate panel against HSD17B family member B1; details: substrate at 50 μM; estradiol set as 100%
T7 construct: made in house
T7 sequence (P14061 1-328): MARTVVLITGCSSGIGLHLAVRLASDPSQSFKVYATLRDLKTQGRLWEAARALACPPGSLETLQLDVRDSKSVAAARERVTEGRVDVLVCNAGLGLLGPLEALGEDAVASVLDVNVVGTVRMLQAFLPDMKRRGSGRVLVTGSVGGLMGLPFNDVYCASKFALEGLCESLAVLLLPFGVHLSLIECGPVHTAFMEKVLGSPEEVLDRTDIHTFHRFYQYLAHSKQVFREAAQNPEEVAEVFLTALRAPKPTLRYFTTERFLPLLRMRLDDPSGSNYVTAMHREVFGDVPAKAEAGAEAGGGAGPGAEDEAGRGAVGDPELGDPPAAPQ
Description: as §1, §2

| SMILES | Percent of Control (POC), B4 (HSD17B4) | Percent of Control (POC), B5 (HSD17B5) | Percent of Control (POC), B11 (HSD17B11) | Percent of Control (POC), B10 (HSD17B10) | HSD17B13 Enzymatic Activity Relative Light Units (human HSD17B13) | HSD17B13 Enzymatic Activity Percent Estradiol Control (human HSD17B13) | Percent of Control (POC), B2 (HSD17B2) | Percent of Control (POC), B1 (HSD17B1) |
| --- | --- | --- | --- | --- | --- | --- | --- | --- |
| CC[C@H]1[C@@H](O)[C@@H]2[C@H](CC[C@]3(C)[C@@H]([C@H](C)CCC(=O)O)CC[C@@H]23)[C@@]2(C)CC[C@@H](O)C[C@@H]12 [6-ethylchenodeoxycholic acid] | 4.6% | 192% | 0.0% | 39.3% | 76200 RLU | −1.47% | 0.1% | 0.0% |
| C[C@]12CC[C@@H](O)C[C@H]1CC[C@@H]1[C@@H]2C(=O)C[C@@]2(C)[C@H]1CC[C@]2(O)C(=O)CO [TetrahydroCortisone] | 0.5% | 104% | 0.0% | 52.2% | 232320 RLU | 1.25% | 1.0% | 0.0% |
| C[C@]12CC[C@@H](O)C[C@@H]1CC[C@@H]1[C@@H]2C(=O)C[C@]2(C)C(=O)CC[C@@H]12 [11-oxo-androsterone] | 0.4% | 0% | 0.0% | 31.4% | 196640 RLU | 0.63% | 0.0% | 0.0% |
| C[C@]12CC[C@@H](O)C[C@H]1CC[C@@H]1[C@@H]2C(=O)C[C@]2(C)C(=O)CC[C@@H]12 [11-oxo-etiocholanolone] | 0.2% | 13% | 0.0% | 30.7% | 195960 RLU | 0.62% | 0.0% | −0.1% |
| CC(=O)OCC(=O)[C@H]1CC[C@H]2[C@@H]3CCC4=CC(=O)CC[C@]4(C)[C@H]3[C@@H](O)C[C@]12C [Corticosterone 21-acetate] | 0.1% | 0% | 32.2% | 0.3% | 190160 RLU | 0.52% | 0.0% | −0.1% |
| CC1(C)[C@@H](O[C@H]2O[C@H](C(=O)O)[C@@H](O)[C@H](O)[C@H]2O[C@@H]2O[C@H](C(=O)O)[C@@H](O)[C@H](O)[C@H]2O)CC[C@]2(C)[C@H]3C(=O)C=C4[C@@H]5C[C@@](C)(C(=O)O)CC[C@]5(C)CC[C@@]4(C)[C@]3(C)CC[C@@H]12 [Glycyrrhizic acid] | 0.7% | 0% | 32.7% | 0.1% | 163600 RLU | 0.05% | 0.0% | −0.1% |
